pIC50, pKd: −log10 of the molar value. Where a name gives a salt, the structure may show the parent alone. Values belong to the compound of their own block, whether it stands above or below them.
Experiments:
[1] = biological target: T1, Porcine pancreatic elastase (PE) (Sus scrofa, UniProt P00772); assay: microscale thermophoresis, NT-647-NHS labelled enzyme; type: binding
[2] = biological target: T1, Porcine pancreatic elastase (PE); assay: chromogenic assay, OD […] nm, non-linear regression; type: biochemical
[3] = biological target: T1, Porcine pancreatic elastase (PE); assay: chromogenic assay, OD […] nm; type: biochemical

T1 sequence (P00772 27-266): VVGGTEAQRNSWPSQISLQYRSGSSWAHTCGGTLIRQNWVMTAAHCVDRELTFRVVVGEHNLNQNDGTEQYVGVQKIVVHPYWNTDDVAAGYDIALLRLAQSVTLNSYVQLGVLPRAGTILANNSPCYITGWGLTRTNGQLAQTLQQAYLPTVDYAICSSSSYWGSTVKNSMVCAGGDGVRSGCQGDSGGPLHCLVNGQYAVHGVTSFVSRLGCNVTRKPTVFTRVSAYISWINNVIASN

pKd [1]: 7.58
pIC50 [2]: 5.45
SMILES: O=c1cc(-c2ccccc2)oc2cc(O)c(O)c(O)c12 [Baicalein, 5,6,7-trihydroxy-2-phenylchromen-4-one]

inhibition at 100 µM ([3]; read-out: % inhibition at 100 μM): 23.6%
SMILES: O=c1c(O)c(-c2ccccc2)oc2cc(O)cc(O)c12 [Galangin, 3,5,7-trihydroxy-2-phenylchromen-4-one]

inhibition at 125 µM ([3]; read-out: % inhibition at 125 μM): 31.5%
SMILES: COc1ccc([C@@H]2CC(=O)c3c(O)cc(O)cc3O2)cc1O [Hesperetin, (2S)-5,7-dihydroxy-2-(3-hydroxy-4-methoxyphenyl)-2,3-dihydrochromen-4-one]

pIC50 [2]: 4.80
SMILES: CC(C)(C)C(=O)Oc1ccc(S(=O)(=O)Nc2ccccc2C(=O)NCC(=O)O)cc1 [Sivelestat sodium salt hydrate, sodium;2-[[2-[[4-(2,2-dimethylpropanoyloxy)phenyl]sulfonylamino]benzoyl]amino]acetate]

From paper doi:10.1101/2020.11.06.371534v1 (biorxiv, 2020)
